#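 A five-concentration, 48-hour dose response in 96-well plates underlies each endpoint, interpolated linearly between surrounding concentrations. GI50: concentration for 50% inhibition of growth. TGI: concentration producing complete growth inhibition.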
# Experiments:
# Assay in all cases: DTP human tumour cell line panel, 48 h
# HOP-92 NSCLC = system: HOP-92 NSCLC
# OVCAR-8 ovarian = system: OVCAR-8 ovarian
# UACC-257 melanoma = system: UACC-257 melanoma
# EKVX NSCLC = system: EKVX NSCLC
# SN12C renal = system: SN12C renal
# NCI-H460 lung = system: NCI-H460 lung
# MDA-MB-435 = system: MDA-MB-435
# KM12 colon = system: KM12 colon
# NCI/ADR-RES ovarian = system: NCI/ADR-RES ovarian
# MOLT-4 leukemia = system: MOLT-4 leukemia
# SK-MEL-28 melanoma = system: SK-MEL-28 melanoma
# IGROV1 ovarian = system: IGROV1 ovarian
# SNB-75 CNS = system: SNB-75 CNS
# HCT-15 colon = system: HCT-15 colon
# HCC-2998 colon = system: HCC-2998 colon
# A549 NSCLC = system: A549 NSCLC
# NCI-H522 lung = system: NCI-H522 lung
# SNB-19 CNS = system: SNB-19 CNS
# SK-MEL-2 melanoma = system: SK-MEL-2 melanoma
# DU-145 prostate = system: DU-145 prostate
# MDA-MB-231 breast = system: MDA-MB-231 breast
# RPMI-8226 leukemia = system: RPMI-8226 leukemia
# LOX IMVI melanoma = system: LOX IMVI melanoma
# HT29 colon = system: HT29 colon
# 786-0 renal = system: 786-0 renal
# U251 CNS = system: U251 CNS
# SK-MEL-5 melanoma = system: SK-MEL-5 melanoma
# SF-295 CNS = system: SF-295 CNS
# SF-539 CNS = system: SF-539 CNS
# T-47D breast = system: T-47D breast
# HOP-62 NSCLC = system: HOP-62 NSCLC
# ACHN renal = system: ACHN renal
# CAKI-1 renal = system: CAKI-1 renal
# HS 578T breast = system: HS 578T breast
# PC-3 prostate = system: PC-3 prostate
# TK-10 renal = system: TK-10 renal
# MALME-3M melanoma = system: MALME-3M melanoma
# SK-OV-3 ovarian = system: SK-OV-3 ovarian
# UO-31 renal = system: UO-31 renal
# NCI-H23 lung = system: NCI-H23 lung
# RXF 393 renal = system: RXF 393 renal
# CCRF-CEM leukemia = system: CCRF-CEM leukemia
# HCT-116 colon = system: HCT-116 colon
# MCF7 breast = system: MCF7 breast
# SR leukemia = system: SR leukemia
# K-562 leukemia = system: K-562 leukemia
# SF-268 CNS = system: SF-268 CNS
# A498 renal = system: A498 renal
# SW-620 colon = system: SW-620 colon
# OVCAR-5 ovarian = system: OVCAR-5 ovarian
# OVCAR-3 ovarian = system: OVCAR-3 ovarian
# OVCAR-4 ovarian = system: OVCAR-4 ovarian
# NCI-H226 lung = system: NCI-H226 lung
# COLO 205 colon = system: COLO 205 colon
# UACC-62 melanoma = system: UACC-62 melanoma
# HL-60(TB) leukemia = system: HL-60(TB) leukemia
# M14 melanoma = system: M14 melanoma
compound,measurement,setting,value
CCCCCCn1c(-c2ccc(C(=O)O/N=C(\N)c3ccc(OC)cc3)cc2)nc(-c2ccccc2)c1-c1ccccc1,GI50,HOP-92 NSCLC,1.12 µM
same,TGI,HOP-92 NSCLC,2.61 µM
same,GI50,OVCAR-8 ovarian,2.21 µM
same,TGI,OVCAR-8 ovarian,6.47 µM
same,GI50,UACC-257 melanoma,4.07 µM
same,TGI,UACC-257 melanoma,> 100 µM
same,GI50,EKVX NSCLC,1.7 µM
same,TGI,EKVX NSCLC,3.38 µM
same,GI50,SN12C renal,1.62 µM
same,TGI,SN12C renal,3.26 µM
same,GI50,NCI-H460 lung,1.85 µM
same,TGI,NCI-H460 lung,3.93 µM
same,GI50,MDA-MB-435,1.66 µM
same,TGI,MDA-MB-435,3.2 µM
same,GI50,KM12 colon,2.81 µM
same,TGI,KM12 colon,> 100 µM
same,GI50,NCI/ADR-RES ovarian,1.18 µM
same,TGI,NCI/ADR-RES ovarian,3.41 µM
same,GI50,MOLT-4 leukemia,1.41 µM
same,TGI,MOLT-4 leukemia,4.08 µM
same,GI50,SK-MEL-28 melanoma,2.96 µM
same,TGI,SK-MEL-28 melanoma,> 100 µM
same,GI50,IGROV1 ovarian,0.295 µM
same,TGI,IGROV1 ovarian,0.869 µM
same,GI50,SNB-75 CNS,1.29 µM
same,TGI,SNB-75 CNS,3.09 µM
same,GI50,HCT-15 colon,1.25 µM
same,TGI,HCT-15 colon,2.87 µM
same,GI50,HCC-2998 colon,2.09 µM
same,TGI,HCC-2998 colon,4.81 µM
same,GI50,A549 NSCLC,0.777 µM
same,TGI,A549 NSCLC,3.36 µM
same,GI50,NCI-H522 lung,1.74 µM
same,TGI,NCI-H522 lung,3.72 µM
same,GI50,SNB-19 CNS,1.85 µM
same,TGI,SNB-19 CNS,4.64 µM
same,GI50,SK-MEL-2 melanoma,2.93 µM
same,TGI,SK-MEL-2 melanoma,9.46 µM
same,GI50,DU-145 prostate,1.02 µM
same,TGI,DU-145 prostate,2.22 µM
same,GI50,MDA-MB-231 breast,1.61 µM
same,TGI,MDA-MB-231 breast,3.69 µM
same,GI50,RPMI-8226 leukemia,1.42 µM
same,TGI,RPMI-8226 leukemia,3.9 µM
same,GI50,LOX IMVI melanoma,0.186 µM
same,TGI,LOX IMVI melanoma,0.341 µM
same,GI50,HT29 colon,2.67 µM
same,TGI,HT29 colon,> 100 µM
same,GI50,786-0 renal,0.276 µM
same,TGI,786-0 renal,0.833 µM
same,GI50,U251 CNS,1.62 µM
same,TGI,U251 CNS,4.21 µM
same,GI50,SK-MEL-5 melanoma,1.92 µM
same,TGI,SK-MEL-5 melanoma,3.71 µM
same,GI50,SF-295 CNS,1.61 µM
same,TGI,SF-295 CNS,3.07 µM
same,GI50,SF-539 CNS,1.5 µM
same,TGI,SF-539 CNS,3.02 µM
same,GI50,T-47D breast,1.94 µM
same,TGI,T-47D breast,4.89 µM
same,GI50,HOP-62 NSCLC,1.9 µM
same,TGI,HOP-62 NSCLC,4.66 µM
same,GI50,ACHN renal,0.354 µM
same,TGI,ACHN renal,1.23 µM
same,GI50,CAKI-1 renal,0.997 µM
same,TGI,CAKI-1 renal,2.19 µM
same,GI50,HS 578T breast,1.2 µM
same,TGI,HS 578T breast,3.1 µM
same,GI50,PC-3 prostate,1.67 µM
same,TGI,PC-3 prostate,4.16 µM
same,GI50,TK-10 renal,1.72 µM
same,TGI,TK-10 renal,3.31 µM
same,GI50,MALME-3M melanoma,1.75 µM
same,TGI,MALME-3M melanoma,3.55 µM
same,GI50,SK-OV-3 ovarian,4.45 µM
same,TGI,SK-OV-3 ovarian,> 100 µM
same,GI50,UO-31 renal,0.413 µM
same,TGI,UO-31 renal,1.48 µM
same,GI50,NCI-H23 lung,1.31 µM
same,TGI,NCI-H23 lung,2.93 µM
same,GI50,RXF 393 renal,1.62 µM
same,TGI,RXF 393 renal,3.17 µM
same,GI50,CCRF-CEM leukemia,0.506 µM
same,TGI,CCRF-CEM leukemia,2.85 µM
same,GI50,HCT-116 colon,1.4 µM
same,TGI,HCT-116 colon,2.89 µM
same,GI50,MCF7 breast,1.61 µM
same,TGI,MCF7 breast,3.72 µM
same,GI50,SR leukemia,0.196 µM
same,TGI,SR leukemia,0.528 µM
CCOC(=O)c1cc2c(cc1Cl)SC(N(c1ccc(F)cc1)S(=O)(=O)c1ccc(OC)cc1)=NS2(=O)=O,GI50,HOP-92 NSCLC,4.81 µM
same,TGI,HOP-92 NSCLC,19.2 µM
same,GI50,K-562 leukemia,14.2 µM
same,TGI,K-562 leukemia,31.1 µM
same,GI50,EKVX NSCLC,21.2 µM
same,TGI,EKVX NSCLC,51.8 µM
same,GI50,SN12C renal,19.3 µM
same,TGI,SN12C renal,50 µM
same,GI50,NCI-H460 lung,17 µM
same,TGI,NCI-H460 lung,36.2 µM
same,GI50,MDA-MB-435,14.8 µM
same,TGI,MDA-MB-435,44.7 µM
same,GI50,KM12 colon,22.8 µM
same,TGI,KM12 colon,63.9 µM
same,GI50,NCI/ADR-RES ovarian,21.2 µM
same,TGI,NCI/ADR-RES ovarian,42.1 µM
same,GI50,SF-268 CNS,14.5 µM
same,TGI,SF-268 CNS,31.4 µM
same,GI50,MOLT-4 leukemia,15.6 µM
same,TGI,MOLT-4 leukemia,37.9 µM
same,GI50,A498 renal,23 µM
same,TGI,A498 renal,45.9 µM
same,GI50,SK-MEL-28 melanoma,14.1 µM
same,TGI,SK-MEL-28 melanoma,29 µM
same,GI50,IGROV1 ovarian,37.7 µM
same,TGI,IGROV1 ovarian,> 100 µM
same,GI50,SNB-75 CNS,18.3 µM
same,TGI,SNB-75 CNS,47.4 µM
same,GI50,HCT-15 colon,14.8 µM
same,TGI,HCT-15 colon,27.9 µM
same,GI50,SW-620 colon,15.9 µM
same,TGI,SW-620 colon,30.6 µM
same,GI50,HCC-2998 colon,18.2 µM
same,TGI,HCC-2998 colon,35.2 µM
same,GI50,A549 NSCLC,22 µM
same,TGI,A549 NSCLC,> 100 µM
same,GI50,NCI-H522 lung,13.5 µM
same,TGI,NCI-H522 lung,29.9 µM
same,GI50,SNB-19 CNS,18.6 µM
same,TGI,SNB-19 CNS,51.2 µM
same,GI50,OVCAR-5 ovarian,32.4 µM
same,TGI,OVCAR-5 ovarian,71 µM
same,GI50,OVCAR-3 ovarian,13.9 µM
same,TGI,OVCAR-3 ovarian,28.3 µM
same,GI50,SK-MEL-2 melanoma,12.4 µM
same,TGI,SK-MEL-2 melanoma,35.1 µM
same,GI50,DU-145 prostate,16.1 µM
same,TGI,DU-145 prostate,33.9 µM
same,GI50,MDA-MB-231 breast,19.2 µM
same,TGI,MDA-MB-231 breast,53.5 µM
same,GI50,RPMI-8226 leukemia,15 µM
same,TGI,RPMI-8226 leukemia,51.5 µM
same,GI50,LOX IMVI melanoma,12.9 µM
same,TGI,LOX IMVI melanoma,25.6 µM
same,GI50,HT29 colon,16.1 µM
same,TGI,HT29 colon,34.6 µM
same,GI50,OVCAR-4 ovarian,14.9 µM
same,TGI,OVCAR-4 ovarian,39.5 µM
same,GI50,NCI-H226 lung,29.8 µM
same,TGI,NCI-H226 lung,> 100 µM
same,GI50,786-0 renal,24.4 µM
same,TGI,786-0 renal,54.1 µM
same,GI50,U251 CNS,16.2 µM
same,TGI,U251 CNS,34.7 µM
same,GI50,SK-MEL-5 melanoma,13.6 µM
same,TGI,SK-MEL-5 melanoma,26.5 µM
same,GI50,SF-295 CNS,25.7 µM
same,TGI,SF-295 CNS,74.8 µM
same,GI50,SF-539 CNS,9.61 µM
same,TGI,SF-539 CNS,22.7 µM
same,GI50,T-47D breast,4.8 µM
same,TGI,T-47D breast,21.9 µM
same,GI50,HOP-62 NSCLC,35.1 µM
same,TGI,HOP-62 NSCLC,> 100 µM
same,GI50,ACHN renal,18.5 µM
same,TGI,ACHN renal,42.1 µM
same,GI50,COLO 205 colon,12.5 µM
same,TGI,COLO 205 colon,27.6 µM
same,GI50,UACC-62 melanoma,14.6 µM
same,TGI,UACC-62 melanoma,30.5 µM
same,GI50,CAKI-1 renal,20.2 µM
same,TGI,CAKI-1 renal,48.7 µM
same,GI50,HS 578T breast,20.7 µM
same,TGI,HS 578T breast,51.3 µM
same,GI50,PC-3 prostate,11.3 µM
same,TGI,PC-3 prostate,25.5 µM
same,GI50,TK-10 renal,18.8 µM
same,TGI,TK-10 renal,54.5 µM
same,GI50,MALME-3M melanoma,14.9 µM
same,TGI,MALME-3M melanoma,32.8 µM
same,GI50,SK-OV-3 ovarian,24.3 µM
same,TGI,SK-OV-3 ovarian,> 100 µM
same,GI50,UO-31 renal,17.9 µM
same,TGI,UO-31 renal,42.2 µM
same,GI50,HL-60(TB) leukemia,18.5 µM
same,TGI,HL-60(TB) leukemia,42.4 µM
same,GI50,NCI-H23 lung,18.5 µM
same,TGI,NCI-H23 lung,44 µM
same,GI50,CCRF-CEM leukemia,1.31 µM
same,TGI,CCRF-CEM leukemia,54.2 µM
same,GI50,HCT-116 colon,17.1 µM
same,TGI,HCT-116 colon,32 µM
same,GI50,M14 melanoma,19.5 µM
same,TGI,M14 melanoma,49.1 µM
same,GI50,MCF7 breast,11.8 µM
same,TGI,MCF7 breast,25.4 µM
same,GI50,SR leukemia,16.8 µM
same,TGI,SR leukemia,37.9 µM
